Results published in patent publication US12545653B2, “Compound as PPAR agonist and application thereof” (USA Elixiria Biotech Inc., priority 2019, dated 2026).
pEC50: −log10 of the molar value. Where “and” joins values, the source holds several entries; their conditions need not be identical. Equal entries are not always repeated.

Key:
[1] = tested on: dIoN-CCI rat model of trigeminal neuropathic pain; details: in vivo
Description: A common rat model of trigeminal neuralgia is a chronic compression injury model (CCI) caused by ligation of the infraorbital nerve (IoN). In the present study, an improved rat model of trigeminal neuropathic pain was used, in which CCI is induced by ligation of distal segment of IoN (dIoN). Wild type male Sprague-Dawley rats with body weight 250 to 260 grams underwent dIoN-CCI surgery experiments. The mechanical threshold of pain in rats without surgery experiments will exceed 6 grams. If the dIoN-CCI surgery is successful, it will reduce the pain threshold to less than 2 grams.
The mice were divided into the following 11 groups with 4 to 5 mice in each group. The formulation used for transdermal treatment is cream. […] The compound administration of each group starts on the third day after successful dIoN-CCI surgery. […] The method for detecting rat facial hypersensitivity is performed using Von Frey filaments. An analysis of variance (ANOVA) and Dunnett post hoc comparison test are used to compare the significance of the differences between different groups of data. The difference is significant with P<0.05.

HEK 293T cells = assay: Inhibition of reactive oxygen species production (ROS-Glo H2O2 Assay); assay type: cell-based, human; details: 18 hours incubation
Procedure: Mitochondrial reactive oxygen species-induced oxidative stress is the source of many diseases. This experiment is used to test whether the carbonyl-containing cyclic compounds provided by the present invention can reduce the production of reactive oxygen species. HEK 293T cells were divided into 96-well plates at 5000 cells per well, cultured in a 37° C. carbon dioxide incubator with serum-free Duchenne's Modified Eagle's Medium (DMEM) for 6 hours, and then representatives for compounds listed in Table 2 and 3 were added to a final concentration of 0, 0.1, 0.3, 1, 3, 10, 30 micromole/L, with each concentration in triplicate. After 18 hours of incubation, the reactive oxygen species detection kit (ROS-Glo™ H2O2 Assay) and the GloMax microplate fluorescence detector (Promega, USA) were used to detect reactive oxygen species production. At the same time, pioglitazone was used as a control. The amount of fluorescence is positively related to the production of reactive oxygen species. A three-parameter Sigmoid function curve was used to fit the obtained data. The abscissa represents the logarithmic value of the concentration, and the ordinate represents the percentage of reduced reactive oxygen species production relative to those of the control. Then EC50 value was calculated with professional software.

[2] = Blood-brain barrier permeability: brain concentration after a single injection; assay type: in vivo, rat; details: male, rat, in vivo, ip, 10 mg/kg
Procedure: The blood-brain barrier permeability of carbonyl-containing cyclic compounds is determined in in vivo studies. Healthy male rats used in the study were divided into compound group and control group. […] The brains were dissected, heated immediately at boiling water for 2 min, homogenized with methanol, and centrifuged. The upper layer was collected and dried under vacuum to remove solvents, and then resuspended in methanol. The above samples are filtered through a 0.45 micron nylon membrane, and then 20 microL of sample were load into a high-performance liquid chromatographic (HPLC) system (Model LC-16P, Shimadzu, Japan) to perform quantitative analysis.

LN-229 cells = assay: Brain cancer model, LN-229 cells injected into the striatum, tumor volume; assay type: in vivo, mouse; details: mice with LN-229 cells in striatum, 5 mg/kg body weight/day
Procedure: The treatment lasted for a total of 30 days. The compounds was dissolved in DMSO and mixed into food pellets. The animals were given ad libitum access to the pellets. […] The difference is significant with P<0.05.

klotho gene = assay: In vivo brain transcriptional activity of klotho gene (RT-PCR of brain mRNA); set-up: species or system mouse; details: 10 mg/kg body weight/day tail vein; for mRNA level of klotho gene in the brain of the mouse relative to vehicle control group: after 10 days of continuous injection; for fold induction at 10 mg/kg: Mus musculus, iv, 720 h, after 30 days of continuous injection, read-out: mRNA level of klotho gene in the brain of the mouse relative to vehicle control group
Procedure: To verify this hypothesis, adult male Kunming mice were used in the experiments. […] The injection volume is 8 ml/kg body weight. Dimethyl sulfoxide (DMSO) was used as a vehicle control of the compounds. […] The RNA was then reverse-transcribed to the cDNA, and quantified by SYBR Green fluorescence quantitative PCR kit (HaiGene) and a quantitative PCR system (Bio-Rad Min-Opticon Type 2) were used for real-time fluorescent quantitative polymerase chain reaction (RT-PCR). The mouse gene primers were design as follows: • KLOTHO-forward 5′-[…]-3′; • LOTHO-reverse 5′-[…]-3′; • GAPDH-forward 5′-[…]-3′; • GAPDH-reverse 5′-[…]-3′.
Data analysis was performed using the 2^−ΔΔct method. Semi-quantitative values of gene expression were then normalized by the control mean.

klotho gene promoter = assay: In vitro transcriptional activity of klotho gene (KL-Luc-3 luciferase cell line); assay type: cell-based; details: KL-Luc-3 cells; for pEC50: 16 h, 16 hours incubation
Description: The activities of these carbonyl-containing cyclic compounds are indicated by the increased expression of klotho gene. […] The present invention retains the DNA fragment of the klotho gene promoter, but replaces the DNA sequence of the coding region of the klotho gene with those of luciferase, so that the degree of activation of the klotho gene promoter and the expression of the klotho gene will be sensitively determined by detecting the luciferase luminescence signal.
Klotho is an important downstream gene of PPARγ pathway. The following experiments tested the properties of the compounds in Table 2 and 3 to activate the klotho gene in vitro. First, a stable cell line, KL-Luc, was constructed. The klotho gene carried by the cell line retained the DNA sequence of klotho gene promoter, but the coding sequence of the klotho gene was replaced with luciferase. KL-Luc fragment includes a promoter sequence of the klotho gene (a DNA region of 18,000 base pairs in length upstream of the transcription start site of the gene) and a luciferase-encoding sequence. To construct the KL-Luc sequence containing lentiviral vector, the KL-Luc fragment was cloned into the pDONR vector using BP recombinase, so that the target fragment had attL recombination sites on both sides. Then the KL-Luc fragment was transferred from the pDONR vector to a lentiviral vector (without exogenous promoter) pLenti6/BLOCK-IT-DEST. The constructed lentiviral vector of the target fragment was then transfected into HEK293T cells, and then the KL-Luc gene lentiviral expression vector and the […] were co-transfected into HEK293T cells to perform lentiviral packaging. The virus was harvested, and virus titer was calculated. And the lentivirus was used to infect target cells. The stable strains were screened by adding drugs. Finally, monoclonal cell lines were selected from polyclonal cells by cell cloning. The effective luciferase expression of each monoclonal cell line was determined by quantitative polymerase chain reaction (qPCR). The inventors chose a third monoclonal cell line (KL-Luc-3) to continue the compound screening. The compounds of interest were the compounds in Table 2 and 3. At the same time, rosiglitazone and pioglitazone were used as a control. KL-Luc-3 cells were divided into 96-well plates at 5000 cells in 80 microL per well, cultured in a 37° C. carbon dioxide incubator with serum-free Duchenne's Modified Eagle's Medium (DMEM) for 6 hours, and then the compounds were added to a final concentration of 0, 0.1, 0.3, 1, 3, 10, 30 micromole/L, with each concentration in triplicate. After 16 hours of incubation, the SteadyLite (PerkinElmer, Waltham, MA) and the GloMax Microplate Luminometer (Promega, USA) were used for quantitation of luciferase activity. The amount of luminescence emitted from each well is positively related to the transcriptional activity of the klotho promoter. A three-parameter Sigmoid function curve was used to fit the obtained data. The abscissa represents the logarithmic value of the concentration, and the ordinate represents the percentage of the activity relative to those of the control. […] In Statistical analysis, the coefficient of variation is used to measure the robustness and repeatability of the experiment. […] The difference is significant with P<0.05. EC50 is a parameter of its activity. The lower the EC50 value, the higher the activity of corresponding compound.

[3] = tested on: MPTP-HCl Parkinson's disease model mice; assay: Parkinson's disease model (MPTP-HCl), beam traversal test; details: MPTP-HCl/probenecid mice, 5 mg/kg body weight intraperitoneal daily, 35 days
Procedure: Three month-old male wild type mice were used in the experiment. The treatment lasted for a total of 35 days. […] For all abovementioned groups, Motor skills were assessed on the 36th to 40th days after compound administration. Beam traversal test is a method commonly used in academia to detect movement coordination in animals with Parkinson's disease. […] The mice were first trained for 2 consecutive days, and taught to trained to traverse the length of the beam. On the day of the test, a mesh grid (1 cm squares) of corresponding width was placed over the beam surface leaving a ˜1 cm space between the grid and the beam surface. Animals were then videotaped while traversing the grid-surfaced beam for a total of five trials. An error was counted when, during a forward movement, a forelimb or hindlimb slipped through the grid. The number of errors made per step (referred to as “error per step scores”) was counted. An analysis of variance (ANOVA) and Dunnett post hoc comparison test are used to compare the significance of the differences between different groups of data. The difference is significant with P<0.05.

SMILES | side effect at the time of administration [1] | inhibition of active oxygen production (up to), compared to the DMSO control (HEK 293T cells; 0-30 micromole/L) | Cmax [2] | AUC(0-t) ([2]; AUC0-6 h) [ng·h/mL] | AUC(0-t) ([2]; AUC0-24 h) [ng·h/mL] | tumor volume at 30 days compared with disease control group (LN-229 cells) | mRNA level of klotho gene in the brain of the mouse relative to vehicle control group (klotho gene) | fold induction at 10 mg/kg (klotho gene) | pEC50 (klotho gene promoter) | induced transcriptional activity of klotho gene relative to pioglitazone (klotho gene promoter) | induced transcriptional activity of klotho gene relative to rosiglitazone (klotho gene promoter) [folds] | klotho EC50 as fraction of that of pioglitazone (klotho gene promoter) | klotho EC50 as fraction of that of rosiglitazone (klotho gene promoter) | number of errors per step in beam traversal test compared with disease control group [3] | pEC50 (HEK 293T cells; Homo sapiens, HEK-293T, 18 h)
CCc1ccc(CC/C=C/c2ccc3c(c2)C(=O)CC3)cc1 [ELB00824, (E)-6-(4-(4-ethylphenyl)but-1-en-1-yl)-2,3-dihydro-1H-inden-1-one] | no side effect | up to 45% | 16.4 µM and 4830 ng/mL | 18700 | 31500 | significant tumor volume reduction | more than twice | > 5 | 5.82 | more than 66 folds | 6 | less than 1/67 | 1/6 | – | –
CCc1ccc(CC/C=C/c2ccc3c(c2)OCCC3=O)cc1 [ELB001045, (E)-7-(4-(4-ethylphenyl)but-1-en-1-yl)chroman-4-one] | – | – | – | – | – | – | more than twice | > 5 | > 5.01 | – | – | – | – | significantly lower | –
CCc1ccc(CC/C=C/c2ccc3c(c2)C(=O)COC3)cc1 [ELB001046, (E)-6-(4-(4-ethylphenyl)but-1-en-1-yl)isochroman-4-one] | – | – | – | – | – | – | more than twice | > 5 | – | – | – | – | – | significantly lower | > 5.00
CCc1ccc(OC/C=C/c2ccc3c(c2)C(=O)CC3)cc1 [ELB001115, (E)-6-(3-(4-ethylphenoxy)prop-1-en-1-yl)-2,3-dihydro-1H-inden-1-one] | – | – | – | – | – | – | more than twice | > 5 | > 5.01 | – | – | – | – | significantly lower | –
COc1ccc(CC/C=C/c2ccc3c(c2)C(=O)CC3)cc1 [ELB001116, (E)-6-(4-(4-methoxyphenyl)but-1-en-1-yl)-2,3-dihydro-1H-inden-1-one] | – | – | – | – | – | – | more than twice | > 5 | > 5.01 | – | – | – | – | significantly lower | –
CCc1ccc(CC/C=C/c2ccc3c(c2)C(=O)CC3)nc1 [ELB001125, (E)-6-(4-(5-ethylpyridin-2-yl)but-1-en-1-yl)-2,3-dihydro-1H-inden-1-one] | – | – | – | – | – | – | more than twice | > 5 | > 5.01 | – | – | – | – | significantly lower | –
